Data published in patent US6656947B2, “Antidepressant azaheterocyclylmethyl derivatives of 2,3-dihydro-1,4-dioxino[2,3-f]quinazoline” (Wyeth, priority 2001, dated 2003).

Legend:
human 5-HT1A receptors = molecular target: T1, human 5-HT1A receptors (Homo sapiens, UniProt P08908); test: [3H] 8-OHDPAT displacement, 5-HT1A receptor affinity; type: binding
T1 construct: expressed in transfected cells; host or cells: CHO cells
T1 sequence (P08908 1-422): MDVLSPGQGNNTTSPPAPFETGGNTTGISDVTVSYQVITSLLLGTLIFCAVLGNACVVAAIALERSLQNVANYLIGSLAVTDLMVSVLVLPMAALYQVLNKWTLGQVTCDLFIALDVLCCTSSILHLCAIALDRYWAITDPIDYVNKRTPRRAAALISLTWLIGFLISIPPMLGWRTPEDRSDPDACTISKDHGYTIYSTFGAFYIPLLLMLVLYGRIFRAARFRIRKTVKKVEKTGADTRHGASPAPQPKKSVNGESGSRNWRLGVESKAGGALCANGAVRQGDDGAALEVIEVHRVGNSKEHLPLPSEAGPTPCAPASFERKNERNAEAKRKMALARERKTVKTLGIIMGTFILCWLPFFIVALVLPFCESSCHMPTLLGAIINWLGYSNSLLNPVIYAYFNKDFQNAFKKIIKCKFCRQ
Description: High affinity for the serotonin 5-HT1A receptor was established by testing the claimed compound's ability to displace [^3H] 8-OHDPAT (dipropylamino-tetralin) from the 5-HT1A serotonin receptor following a modification of the procedure of Hall et al., J. Neurochem. 44, 1685 (1985) which utilizes CHO cells stably transfected with human 5-HT1A receptors.

serotonin transporter = molecular target: T2, serotonin transporter (Rattus norvegicus, UniProt P31652); test: 3H-paroxetine displacement, serotonin transporter affinity; type: binding
T2 construct: displace ^3H-paroxetine from male rat frontal cortical membranes; from tissue; host or cells: male rat frontal cortex membranes

[1] = molecular target: T3, cloned human 5-HT1A receptors (Homo sapiens, UniProt P08908); test: 35S-GTPγS binding assay, 5-HT1A antagonist activity; type: biochemical; conditions: reversal of the effects of standard agonist 8-OHDPAT on 35S-GTPγS binding; for IC50: membranes with cloned human 5-HT1A receptors, read-out: 5-HT1A Function IC50; for 5-HT1A Function Imax (maximum inhibitory effect): value in parentheses
T3 construct: expressed in transfected cells
T3 sequence (P08908 1-422): T1 sequence (P08908 1-422)
Experimental: Antagonist activity at 5-HT1A receptors was established by using a ^35S-GTPγS binding assay similar to that used by Lazareno and Birdsall (Br. J. Pharmacol. 109: 1120, 1993), in which the test compound's ability to affect the binding of ^35S-GTPγS to membranes containing cloned human 5-HT1A receptors was determined. Agonists produce an increase in binding whereas antagonists produce no increase but rather reverse the effects of the standard agonist 8-OHDPAT. The test compound's maximum inhibitory effect is represented as the Imax, while its potency is defined by the IC50.

T2 sequence (P31652 whole entry): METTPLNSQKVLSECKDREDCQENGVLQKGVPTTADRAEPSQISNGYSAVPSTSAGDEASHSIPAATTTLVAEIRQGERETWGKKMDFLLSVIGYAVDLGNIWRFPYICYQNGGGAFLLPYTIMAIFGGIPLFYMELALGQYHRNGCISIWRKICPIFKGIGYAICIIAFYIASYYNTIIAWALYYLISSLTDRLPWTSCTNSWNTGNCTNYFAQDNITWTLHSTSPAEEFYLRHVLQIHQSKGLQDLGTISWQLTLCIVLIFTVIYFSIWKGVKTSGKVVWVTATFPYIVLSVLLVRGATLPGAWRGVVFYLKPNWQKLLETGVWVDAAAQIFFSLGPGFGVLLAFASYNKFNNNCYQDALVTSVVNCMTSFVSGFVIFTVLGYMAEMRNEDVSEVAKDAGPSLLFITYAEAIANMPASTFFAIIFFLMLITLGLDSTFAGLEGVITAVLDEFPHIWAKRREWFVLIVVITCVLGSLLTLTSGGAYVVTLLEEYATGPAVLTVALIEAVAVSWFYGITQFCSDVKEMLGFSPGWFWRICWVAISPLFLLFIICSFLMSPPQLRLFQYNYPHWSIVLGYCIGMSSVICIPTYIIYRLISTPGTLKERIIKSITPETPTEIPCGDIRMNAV

SMILES	Ki (human 5-HT1A receptors) [µM]	Ki (serotonin transporter) [µM]	IC50 [1] [µM]	5-HT1A Function Imax (maximum inhibitory effect) [1]	melting point [°C]
C1=C(c2c[nH]c3ccccc23)CCN(CC2COc3ccc4ncncc4c3O2)C1 (stereo not drawn) [Example 2, 2-[(4-(1H-Indol-3-yl)-3,6-dihydropyridin-1(2H)-yl)methyl]-2,3-dihydro[1,4]dioxino[2,3-f]quinazoline]	0.015	0.00287	0.379	(100)	
Cc1ncc2c3c(ccc2n1)OCC(CN1CC=C(c2c[nH]c4ccccc24)CC1)O3 (stereo not drawn) (hydrate or solvate) [Example 4, 2-[(4-(1H-Indol-3-yl)-3,6-dihydropyridin-1(2H)-yl)methyl]-8-methyl-2,3-dihydro[1,4]dioxino[2,3-f]quinazoline]					198 to 202
Fc1ccc2[nH]cc(C3=CCN(CC4COc5ccc6ncncc6c5O4)CC3)c2c1 (stereo not drawn) [Example 1, 2-[(4-(5-Fluoro-1H-indol-3-yl)-3,6-dihydropyridin-1(2H)-yl)methyl]-2,3-dihydro[1,4]dioxino[2,3-f]quinazoline]	0.0515	0.00224	0.499	(94.0)	
C1=C(c2c[nH]c3ccccc23)CCN(CC2COc3ccc4ncncc4c3O2)C1 (stereo not drawn) (hydrate or solvate) [Example 2, 2-[(4-(1H-Indol-3-yl)-3,6-dihydropyridin-1(2H)-yl)methyl]-2,3-dihydro[1,4]dioxino[2,3-f]quinazoline]					204 to 207
Cc1ncc2c3c(ccc2n1)OCC(CN1CC=C(c2c[nH]c4ccccc24)CC1)O3 (stereo not drawn) [Example 4, 2-[(4-(1H-Indol-3-yl)-3,6-dihydropyridin-1(2H)-yl)methyl]-8-methyl-2,3-dihydro[1,4]dioxino[2,3-f]quinazoline]	0.0024	0.00226	0.116	(100)	
CCc1ncc2c3c(ccc2n1)OCC(CN1CC=C(c2c[nH]c4ccccc24)CC1)O3 (stereo not drawn) [Example 5, 2-[(4-(1H-Indol-3-yl)-3,6-dihydropyridin-1(2H)-yl)methyl]-8-ethyl-2,3-dihydro[1,4]dioxino[2,3-f]quinazoline]	0.00827	0.00425	0.209	(100)	203 to 211
Fc1ccc2[nH]cc(C3=CCN(CC4COc5ccc6ncncc6c5O4)CC3)c2c1 (stereo not drawn) (hydrate or solvate) [Example 1, 2-[(4-(5-Fluoro-1H-indol-3-yl)-3,6-dihydropyridin-1(2H)-yl)methyl]-2,3-dihydro[1,4]dioxino[2,3-f]quinazoline]					233 to 235
Cc1nc2ccc3c(c2c[n+]1[O-])OC(CN1CC=C(c2c[nH]c4ccccc24)CC1)CO3 (stereo not drawn) [Example 3, 2-[(4-(1H-Indol-3-yl)-3,6-dihydropyridin-1(2H)-yl)methyl]-8-methyl-2,3-dihydro[1,4]dioxino[2,3-f]quinazoline 9-oxide]	0.0256	0.00464	0.44	(94.0)	
